Experimental data reported in patent US20090239928A1, “N-Pyrrolidin-3YL-Amide Derivatives As Serotonin and Noradrenalin Re-Uptake Inhibitors” (priority 2004, published 2009).
Where a name gives a salt, the structure may show the parent alone. Read-outs that look alike come from different tables or passages of the source.

Key:
[1] = molecular target: T1, human serotonin transporter (hSERT) (Homo sapiens, UniProt P31645); experiment: SPA radioligand binding at human serotonin transporter (3H-citalopram)
T1 construct: expressed in transfected cells; host or cells: HEK-293
T1 sequence (P31645 whole entry): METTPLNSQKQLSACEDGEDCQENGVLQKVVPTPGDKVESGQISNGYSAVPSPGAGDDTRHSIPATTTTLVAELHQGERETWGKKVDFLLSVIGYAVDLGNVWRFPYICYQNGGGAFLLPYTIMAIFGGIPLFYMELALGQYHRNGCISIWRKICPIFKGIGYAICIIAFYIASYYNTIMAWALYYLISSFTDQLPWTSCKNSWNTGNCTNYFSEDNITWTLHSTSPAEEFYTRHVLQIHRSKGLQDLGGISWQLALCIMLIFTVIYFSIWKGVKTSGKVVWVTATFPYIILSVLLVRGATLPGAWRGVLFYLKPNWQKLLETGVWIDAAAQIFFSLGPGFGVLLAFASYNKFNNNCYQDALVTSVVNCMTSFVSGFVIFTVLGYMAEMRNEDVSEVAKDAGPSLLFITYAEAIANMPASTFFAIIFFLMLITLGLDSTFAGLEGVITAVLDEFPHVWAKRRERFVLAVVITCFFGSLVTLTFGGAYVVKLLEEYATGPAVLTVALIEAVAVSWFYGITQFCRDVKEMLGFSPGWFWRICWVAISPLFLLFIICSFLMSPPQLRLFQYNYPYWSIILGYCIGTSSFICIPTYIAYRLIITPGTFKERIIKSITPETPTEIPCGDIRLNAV
Description: The compounds are tested for biological activity by their ability to inhibit binding of selective radioligands at the human serotonin and noradrenaline transporters (SERT and NET, respectively), using scintillation proximity assay (SPA) technology. The SPA binding is performed using cellular membrane preparations prepared from cell lines expressing human cDNA encoding either SERT or NET (hSERT, hNET), using the radioligands 3H-citalopram and 3H-nisoxetine.
Human embryonic kidney cells (HEK-293) expressing each transporter are maintained as a continuous culture, using standard cell culture techniques, in 50 mL of growth medium (see Media and Buffers for composition) in 225 cm^2 flasks, at 37° C. in a humidified atmosphere with 5% CO2 present. Cells are passaged from a 90% confluent monolayer at a ratio of 1:3-1:4. For cell harvesting, the growth medium is removed from the monolayer and the cells are incubated with cell dissociation solution (Sigma) until showing signs of dissociation. The cells are subsequently knocked from the base of the flask and pelleted by centrifugation for storage (frozen at −80° C.) prior to further use.
Cell pellets are thawed on ice and resuspended in 3 mL of membrane preparation buffer (see Media and Buffers for composition) per 1 mL of packed cell volume, using a vortex mixer to disperse the cell pellet. • After incubation on ice for 10 minutes, the suspension is homogenised for four individual 10 second intervals using a hand-held homogeniser. The homogenate is then centrifuged at 1075×g for 20 minutes at 4° C. • The supernatants are then collected and retained. Initial cell & nuclei pellets (P1) are subsequently rehomogenised and centrifuged using the conditions cited above, and the supernatants collected and pooled with those retained from the first spin.
The pooled supernatants are centrifuged at 35000×g for 30 minutes at 4° C., and the supernatants discarded. The pellets (P2) are then resuspended in 1 mL of membrane preparation buffer per 1 mL of the original packed cell volume. Protein concentrations are then measured and the membrane suspension was finally frozen in aliquots of set volume and stored at −80° C. prior to use in assays.
The specific SPA bead type differed for each transporter, wheat germ agglutinin-coated yttrium silicate (YSi WGA) SPA beads are used for hSERT and WGA-coated polyvinyltoluene (PvT WGA) SPA beads for hNET assays. For each batch of membrane used, optimal concentrations of bead and membrane are determined
Tritiated radioligands specific to each transporter (3H-citalopram for hSERT and ^3H-nisoxetine for hNET) are used. The assay free radioligand concentration is expressed as a percentage of the total free radioligand concentration to give an estimate of the radioligand depletion. The radioligand depletion in assays for both transporters is less than 30% to ensure that there was sufficient radioligand available for binding. The ligand depletion value is also used for selecting the optimal assay conditions when using new batches of membranes.
The affinity of the specific radioligand for the respective transporter is determined for each membrane batch at the selected protein and bead concentrations. This is achieved by the determination of the KD, the concentration of free radioligand at which 50% of the transporter binding sites were occupied. The mean KD for a radioligand at a batch of membranes is determined from data from a minimum of three separate assays. The mean KD is subsequently used for all assays using the membrane batch profiled to enable determination of Ki values of compounds studied using the method determined by Cheng and Prussoff (Cheng Y C and Prusoff W H. Relationship between the inhibition constant (Ki) and the concentration of inhibitor which causes 50% inhibition of an enzymatic reaction. Biochem Pharmacol 1973; 22:[…].)
The required amount of membrane is thawed on ice and added to a predetermined volume of bead suspension in assay buffer. […]

[2] = molecular target: T2, human noradrenaline transporter (hNET) (Homo sapiens, UniProt P23975); experiment: SPA radioligand binding at human noradrenaline transporter (3H-nisoxetine)
T2 construct: expressed in transfected cells; host or cells: HEK-293
T2 sequence (P23975 whole entry): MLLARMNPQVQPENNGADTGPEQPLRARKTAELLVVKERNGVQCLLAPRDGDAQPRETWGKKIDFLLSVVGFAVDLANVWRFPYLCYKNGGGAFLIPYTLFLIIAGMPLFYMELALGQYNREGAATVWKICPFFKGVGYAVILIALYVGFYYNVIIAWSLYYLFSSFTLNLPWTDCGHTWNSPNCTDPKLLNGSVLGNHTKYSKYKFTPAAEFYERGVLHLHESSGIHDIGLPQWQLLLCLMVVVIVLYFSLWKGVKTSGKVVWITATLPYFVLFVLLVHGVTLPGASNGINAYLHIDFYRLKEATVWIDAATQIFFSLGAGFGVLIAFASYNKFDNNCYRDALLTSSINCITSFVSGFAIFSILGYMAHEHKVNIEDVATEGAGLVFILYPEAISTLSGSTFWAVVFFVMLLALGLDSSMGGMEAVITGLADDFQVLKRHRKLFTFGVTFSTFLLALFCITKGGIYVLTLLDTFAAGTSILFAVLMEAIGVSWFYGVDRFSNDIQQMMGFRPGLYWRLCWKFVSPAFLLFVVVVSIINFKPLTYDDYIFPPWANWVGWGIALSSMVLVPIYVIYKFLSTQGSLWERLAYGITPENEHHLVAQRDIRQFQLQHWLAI
Description: The affinity of the specific radioligand for the respective transporter is determined for each membrane batch at the selected protein and bead concentrations. […] The mean KD for a radioligand at a batch of membranes is determined from data from a minimum of three separate assays.
The required amount of membrane is thawed on ice and added to a predetermined volume of bead suspension in assay buffer. The beads are then pre-coupled by incubating the predetermined protein quantity per mg of bead on a shaker at a temperature of 4° C. for 2 hours. Subsequently, the bead/membrane complex is spun down at 865×g for 5 minutes. The resulting pellet is resuspended in assay buffer and this spin/wash step is then repeated. The final pellet is then resuspended in assay buffer at the specific concentration required for the final assay.
An aliquot of [^3H]-radioligand stock is diluted in assay buffer to give a pre-determined final assay concentration less than the equilibrium dissociation constant (KD) value.
All test compounds are prepared at a concentration of 4 mM in 100% dimethyl sulphoxide (DMSO) from dry samples.
The same volume of assay buffer is added to specific wells of the plate to enable subsequent measurement of total radioligand binding. Furthermore, 20 μL a high concentration of compound specific to each transporter assay is subsequently added to predetermined wells to determine non-specific binding (NSB).

[3] = hNET membranes from HEK-293 cells, 3H-nisoxetine, SPA, read-out: NRI Ki
[4] = hSERT membranes from HEK-293 cells, 3H-citalopram, SPA, read-out: SRI Ki

| Structure (SMILES) | Ki [2, 3] | Ki [1, 4] | Ki [2] | Ki [1] |
| --- | --- | --- | --- | --- |
| O=C(c1ccccc1Oc1ccccc1)N(c1ccccc1)[C@H]1CCNC1 [Example 14, 2-phenoxy-N-phenyl-N-[(3S)-pyrrolidin-3-yl]benzamide hydrochloride] | 3 nM | – | – | 67 nM |
| CSc1ccccc1C(=O)N(C1CCCCC1)[C@H]1CCNC1 [Example 20, N-cyclohexyl-2-(methylthio)-N-[(3S)-pyrrolidin-3-yl]benzamide hydrochloride] | 5 nM | 17 nM | – | – |

Now from value to molecule, other results behind:

| Ki [2, 3] | Ki [1, 4] | Ki [2] | Structure (SMILES) | Ki [1] |
| --- | --- | --- | --- | --- |
| 12 nM | 70 nM | – | O=C(c1ccccc1Oc1ccccc1)N(C1CCCC1)[C@H]1CCNC1 [Example 4, N-Cyclopentyl-2-phenoxy-N-[(3S)-pyrrolidin-3-yl]benzamide hydrochloride] | – |
| – | 20 nM | 6 nM | CSc1ccccc1C(=O)N(CC1(C)CCC1)[C@H]1CCNC1 [Example 9, N-[(1-methylcyclobutyl)methyl]-2-(methylthio)-N-[(3S)-pyrrolidin-3-yl]benzamide hydrochloride] | – |
| 16 nM | 500 nM | – | O=C(c1ccccc1C1CCCC1)N(CC1CC1)[C@H]1CCNC1 [Example 19, 2-cyclopentyl-N-(cyclopropylmethyl)-N-[(3S)-pyrrolidin-3-yl]benzamide hydrochloride] | – |
| 9 nM | 2400 nM | – | CCCN(C(=O)c1cc(F)ccc1Oc1ccccc1)[C@H]1CCNC1 [Example 7, 5-fluoro-2-phenoxy-N-propyl-N-[(3S)-pyrrolidin-3-yl]benzamide hydrochloride] | – |
